Values after ≈ are worked out from the molar mass of the structure shown. Marks after values point to notes of the source that are not given here.
How the values were obtained:
[1] = tested on: Staphylococcus aureus ATCC 6538 adherent organisms (biofilm); experiment: MIC/MBC in adherent-cell biofilm of S. aureus ATCC 6538; type: cell-based; settings: for Adherent organisms (biofilm) MIC^b: S. aureus ATCC 6538, 20 h; for Adherent organisms (biofilm) MBC^b: S. aureus ATCC 6538, regrowth 20 h in antibiotic-free MHB
Method: An adherent biofilm for susceptibility testing was formed using a clinical isolate of Staphylococcus aureus (ATCC 6538). S. aureus biofilms were prepared in a tissue culture non-treated polystyrene 96-well plate (Corning) and washed with phosphate-buffered saline (PBS) to remove unbound bacteria. Subsequently, serial twofold dilutions of the compounds in MHB were added to wells containing adherent organisms. The polystyrene plates were incubated for 20 h at 37° C. The MIC was taken as the lowest drug concentration at which observable growth was inhibited.

[2] = tested on: MRSA; experiment: Time-kill assay against MRSA in MHB
[3] = tested on: C. elegans infected with MRSA; experiment: Treatment of C. elegans infected with MRSA; settings: MRSA-infected worms, 100 μM; for Log CFU/worm: 16 hours treatment; for Log Reduction: versus DMSO control
[4] = molecular target: S. aureus HMGR (Staphylococcus aureus, UniProt Q9FD86); experiment: biochemical
[5] = tested on: J774A.1 cells; experiment: In vitro cell viability/cytotoxicity MTS assay; type: cell-based; settings: 100 μM, 24 hours
Method: Cytotoxicity of the compounds was evaluated using J774A.1 cells (mitochondrial function) in the CellTiter 96® AQueous Non-Radioactive Cell Proliferation Assay (Promega). […] Formazan is measured by measuring the absorbance at 490 nm. Briefly, ˜2×10^4 J774A.1 cells suspended in 200 μL DMEM supplemented with 10% fetal bovine serum (FBS), L-glutamine, NaHCO3, pyridoxine-HCl, and […] glucose and preserved with 1% penicillin-streptomycin solution were seeded in 96-well plates and incubated at 37° C. in a 5% CO2 atmosphere. The cells were cultured for 24 hours (60% confluency) before the assays. The J774A.1 cells were further incubated with 100 μM of compounds (2f, […], 2j, and 2e) and DMSO as a control for 24 hours. The culture media was discarded, and the cells in each well were washed with PBS and re-suspended with 100 μL of cell culture media prior to addition of the assay reagent. The plates were incubated for 4 hours at 37° C. in a humidified 5% CO2 atmosphere. The absorbance at 490 nm was recorded using a 96-well Elisa plate reader (SoftMax ProInc., USA). Results were expressed as the percentage mean absorbance by cells upon incubation with various treatments (compounds 2f, 2j, 2i, and 2e) with respect to incubation with DMSO. The results are expressed as means from six measurements±SD.

[6] = tested on: Bacillus anthracis Sterne strain (34F2); type: cell-based; settings: for inhibition of growth in initial screen: 100 μM; for Bacillus anthracis MBC / Bacillus anthracis MIC: MHB
[7] = tested on: Bacillus subtilis; experiment: Screen and MIC/MBC against Bacillus subtilis; type: cell-based; settings: for inhibition of growth in initial screen: 100 μM; for Bacillus subtilis MBC / Bacillus subtilis MIC: MHB
[8] = tested on: Bacillus cereus; experiment: Screen and MIC/MBC against Bacillus cereus; type: cell-based; settings: for inhibition of growth in initial screen: 100 μM; for Bacillus cereus MBC / Bacillus cereus MIC: MHB
[9] = tested on: Listeria monocytogenes; experiment: Screen and MIC/MBC against Listeria monocytogenes; type: cell-based; settings: for inhibition of growth in initial screen: 100 μM; for Listeria monocytogenes MBC / Listeria monocytogenes MIC: MHB
[10] = tested on: Brucella abortus; type: cell-based; settings: for inhibition of growth in initial screen: 100 μM; for Brucella abortus (single value, head does not say MIC or MBC): MHB
[11] = tested on: Candida albicans ATCC 18804; experiment: MIC/MFC against Candida albicans in YM broth; type: cell-based; settings: yeast medium broth
Method: Antifungal activities of 22 HMG-CoA Reductase inhibitors were initially tested at 100 μM concentration against Candida albicans ATCC 18804.

[12] = tested on: Staphylococcus aureus ATCC 6538 planktonic organisms (not in biofilm); experiment: MIC/MBC against planktonic S. aureus ATCC 6538; type: cell-based
[13] = tested on: vancomycin resistant Enterococcus faecalis (VRE) ATCC 51299; experiment: MIC/MBC micro dilution against VRE; settings: VRE ATCC 51299, MHB, 20 hours
[14] = tested on: methicillin-resistant Staphylococcus aureus (MRSA) ATCC 43300; experiment: MIC/MBC micro dilution against MRSA; settings: for MRSA MBC: MRSA ATCC 43300, MHB, 20 hours, Table 2; for MBC / MIC: Staphylococcus aureus
[15] = tested on: vancomycin intermediate Staphylococcus aureus (VISA) NRS1; experiment: MIC/MBC against clinical VISA isolate
[16] = tested on: clinical methicillin-resistant Staphylococcus aureus (MRSA) isolates; experiment: MIC/MBC against clinical MRSA isolates
[17] = tested on: C. elegans infected with VRE; experiment: Treatment of C. elegans infected with VRE; settings: VRE-infected worms, 100 μM
[18] = molecular target: E. faecalis II-HMGR (Enterococcus faecalis, UniProt Q9FD70); experiment: biochemical

S. aureus HMGR, sequence (Q9FD86 entry or part of it): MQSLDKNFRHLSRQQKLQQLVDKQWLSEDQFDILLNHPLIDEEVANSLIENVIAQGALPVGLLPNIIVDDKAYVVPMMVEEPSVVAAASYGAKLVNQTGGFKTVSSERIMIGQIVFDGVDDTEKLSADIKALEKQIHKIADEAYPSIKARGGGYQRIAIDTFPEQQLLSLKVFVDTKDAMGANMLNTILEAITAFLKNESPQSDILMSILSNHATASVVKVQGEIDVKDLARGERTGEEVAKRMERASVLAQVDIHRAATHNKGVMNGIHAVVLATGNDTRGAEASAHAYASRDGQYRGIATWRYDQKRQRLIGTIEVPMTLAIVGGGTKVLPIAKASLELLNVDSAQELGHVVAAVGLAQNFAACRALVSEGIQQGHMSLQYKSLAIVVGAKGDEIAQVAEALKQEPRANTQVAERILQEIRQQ

SMILES: CN[C@H](CC(C)C)C(=O)N[C@H]1C(=O)N[C@@H](CC(N)=O)C(=O)N[C@H]2C(=O)N[C@H]3C(=O)N[C@H](C(=O)N[C@H](C(=O)O)c4cc(O)cc(O)c4-c4cc3ccc4O)[C@H](O)c3ccc(c(Cl)c3)Oc3cc2cc(c3O[C@@H]2O[C@H](CO)[C@@H](O)[C@H](O)[C@H]2O[C@H]2C[C@](C)(N)[C@H](O)[C@H](C)O2)Oc2ccc(cc2Cl)[C@H]1O [Vancomycin, vancomycin, reference compound]
- Adherent organisms (biofilm) MIC^b [1]: 2 µM
- Adherent organisms (biofilm) MBC^b [1]: 8 µM
- time-kill of MRSA cells ([2]; 3× MIC): failed to reduce the number of CFU by 3-log10 within a 10 hour window
- Log CFU/worm [3]: 3.26 ± 0.20 Log CFU/worm
- Log Reduction [3]: 1.78*

SMILES: CC(C)CCCCc1ccc(NS(=O)(=O)c2ccc(O)c(C(=O)O)c2)cc1 [Compound 2j, 2-hydroxy-5-[N-(4-(5-methylhexyl)phenyl)sulfamoyl]benzoic acid]
- IC50 [4]: 22 µM
- percentage mean absorbance at 490 nm (MTS) versus DMSO [5]: no significant differences in percentage mean absorption
- inhibition of growth in initial screen [6]: showed inhibition of growth
- Bacillus anthracis MBC [6]: 32/32
- Bacillus anthracis MIC [6]: 32/32
- inhibition of growth in initial screen [7]: showed inhibition of growth
- Bacillus subtilis MBC [7]: 32/32
- Bacillus subtilis MIC [7]: 32/32
- inhibition of growth in initial screen [8]: showed inhibition of growth
- Bacillus cereus MBC [8]: 64/64
- Bacillus cereus MIC [8]: 64/64
- inhibition of growth in initial screen [9]: showed inhibition of growth
- Listeria monocytogenes MBC [9]: 128/>128
- Listeria monocytogenes MIC [9]: 128/>128
- inhibition of growth in initial screen [10]: showed inhibition of growth
- Brucella abortus (single value, head does not say MIC or MBC) [10]: 64 µM
- Candida albicans MFC [11]: 128/>128
- Candida albicans MIC [11]: 128/>128
- Planktonic organisms (not in biofilm) MBC [12]: 64 µM
- Planktonic organisms (not in biofilm) MIC [12]: 64 µM
- Adherent organisms (biofilm) MIC^b [1]: 128 µM
- Adherent organisms (biofilm) MBC^b [1]: 128 µM
- VRE MBC [13]: 128/128
- MRSA MBC [14]: 64/64
- MBC [14]: 64 µM (≈ 25.1 µg/mL)
- MIC [14]: 64 µM (≈ 25.1 µg/mL)
- MBC [15]: 16 µM (≈ 6.26 µg/mL)
- MIC [15]: 16 µM (≈ 6.26 µg/mL)
- MBC ([16]; MRSA / NRS123 / USA400): 32 µM (≈ 12.5 µg/mL)
- MIC ([16]; MRSA / NRS123 / USA400): 16 µM (≈ 6.26 µg/mL)
- MBC ([16]; MRSA / NRS382 / USA100): 32 µM (≈ 12.5 µg/mL)
- MIC ([16]; MRSA / NRS382 / USA100): 16 µM (≈ 6.26 µg/mL)
- MBC ([16]; MRSA / NRS383 / USA200): 32 µM (≈ 12.5 µg/mL)
- MIC ([16]; MRSA / NRS383 / USA200): 16 µM (≈ 6.26 µg/mL)
- MBC ([16]; MRSA / NRS384 / USA300): 32 µM (≈ 12.5 µg/mL)
- MIC ([16]; MRSA / NRS384 / USA300): 16 µM (≈ 6.26 µg/mL)
- MBC ([16]; MRSA / NRS385 / USA500): 16 µM (≈ 6.26 µg/mL)
- MIC ([16]; MRSA / NRS385 / USA500): 16 µM (≈ 6.26 µg/mL)
- MBC ([16]; MRSA / NRS386 / USA700): 16 µM (≈ 6.26 µg/mL)
- MIC ([16]; MRSA / NRS386 / USA700): 16 µM (≈ 6.26 µg/mL)
- MBC ([16]; MRSA / NRS387 / USA800): 32 µM (≈ 12.5 µg/mL)
- MIC ([16]; MRSA / NRS387 / USA800): 16 µM (≈ 6.26 µg/mL)
- MBC ([16]; MRSA / NRS483): 32 µM (≈ 12.5 µg/mL)
- MIC ([16]; MRSA / NRS483): 16 µM (≈ 6.26 µg/mL)
- MBC ([16]; MRSA / NRS484): 32 µM (≈ 12.5 µg/mL)
- MIC ([16]; MRSA / NRS484): 16 µM (≈ 6.26 µg/mL)

SMILES: CCCCCCCCCCc1ccc(NS(=O)(=O)c2ccc(O)c(C(=O)O)c2)cc1 [Compound 2f, 5-[N-(4-decylphenyl)sulfamoyl]-2-hydroxybenzoic acid]
- IC50 [4]: 7.2 µM
- percentage mean absorbance at 490 nm (MTS) versus DMSO [5]: no significant differences in percentage mean absorption
- inhibition of growth in initial screen [6]: showed inhibition of growth
- Bacillus anthracis MBC [6]: 16/16
- Bacillus anthracis MIC [6]: 16/16
- inhibition of growth in initial screen [7]: showed inhibition of growth
- Bacillus subtilis MBC [7]: 16/16
- Bacillus subtilis MIC [7]: 16/16
- inhibition of growth in initial screen [8]: showed inhibition of growth
- Bacillus cereus MBC [8]: 16/16
- Bacillus cereus MIC [8]: 16/16
- inhibition of growth in initial screen [9]: showed inhibition of growth
- Listeria monocytogenes MBC [9]: > 128 µM
- Listeria monocytogenes MIC [9]: 64 µM
- inhibition of growth in initial screen [10]: showed inhibition of growth
- Brucella abortus (single value, head does not say MIC or MBC) [10]: 128 µM
- Candida albicans MFC [11]: 16/16
- Candida albicans MIC [11]: 16/16
- Planktonic organisms (not in biofilm) MBC [12]: 16 µM
- Planktonic organisms (not in biofilm) MIC [12]: 16 µM
- Adherent organisms (biofilm) MIC^b [1]: 64 µM
- Adherent organisms (biofilm) MBC^b [1]: 128 µM
- VRE MBC [13]: 32/32
- MRSA MBC [14]: 16/16
- MBC [14]: 16 µM (≈ 6.94 µg/mL)
- MIC [14]: 16 µM (≈ 6.94 µg/mL)
- time-kill of MRSA cells ([2]; 1× MIC or 2× MIC): four hours are required to eliminate bacteria completely
- time-kill of MRSA cells ([2]; 3× MIC): complete elimination of MRSA cells within a two-hour window
- MBC [15]: 4 µM (≈ 1.73 µg/mL)
- MIC [15]: 4 µM (≈ 1.73 µg/mL)
- MBC ([16]; MRSA / NRS123 / USA400): 16 µM (≈ 6.94 µg/mL)
- MIC ([16]; MRSA / NRS123 / USA400): 4 µM (≈ 1.73 µg/mL)
- MBC ([16]; MRSA / NRS382 / USA100): 8 µM (≈ 3.47 µg/mL)
- MIC ([16]; MRSA / NRS382 / USA100): 8 µM (≈ 3.47 µg/mL)
- MBC ([16]; MRSA / NRS383 / USA200): 4 µM (≈ 1.73 µg/mL)
- MIC ([16]; MRSA / NRS383 / USA200): 4 µM (≈ 1.73 µg/mL)
- MBC ([16]; MRSA / NRS384 / USA300): 8 µM (≈ 3.47 µg/mL)
- MIC ([16]; MRSA / NRS384 / USA300): 4 µM (≈ 1.73 µg/mL)
- MBC ([16]; MRSA / NRS385 / USA500): 8 µM (≈ 3.47 µg/mL)
- MIC ([16]; MRSA / NRS385 / USA500): 4 µM (≈ 1.73 µg/mL)
- MBC ([16]; MRSA / NRS386 / USA700): 8 µM (≈ 3.47 µg/mL)
- MIC ([16]; MRSA / NRS386 / USA700): 4 µM (≈ 1.73 µg/mL)
- MBC ([16]; MRSA / NRS387 / USA800): 8 µM (≈ 3.47 µg/mL)
- MIC ([16]; MRSA / NRS387 / USA800): 4 µM (≈ 1.73 µg/mL)
- MBC ([16]; MRSA / NRS483): 8 µM (≈ 3.47 µg/mL)
- MIC ([16]; MRSA / NRS483): 4 µM (≈ 1.73 µg/mL)
- MBC ([16]; MRSA / NRS484): 8 µM (≈ 3.47 µg/mL)
- MIC ([16]; MRSA / NRS484): 4 µM (≈ 1.73 µg/mL)
- Log CFU/worm ([17]; 16 hours treatment): 0.70 ± 0.37 Log CFU/worm
- Log Reduction ([17]; versus DMSO control): 4.20*
- Log CFU/worm [3]: 2.33 ± 0.09 Log CFU/worm
- Log Reduction [3]: 2.71*

SMILES: CCCCc1ccc(NS(=O)(=O)c2ccc(O)c(C(=O)O)c2)cc1 [Compound 1, 5-[N-(4-butylphenyl)sulfamoyl]-2-hydroxybenzoic acid]
- IC50 [4]: 91 ± 5 µM
- IC50 [18]: 5 µM

From US9604925B2, “Class II HMG-CoA reductase inhibitors and methods of use” (Purdue Research Foundation, priority 2012, dated 2017)
